Reference: patent US20230414609A1, “USES OF ORAI1-SPECIFIC CALCIUM CHANNELS IN TREATMENT OF ORAL CANCER” (New York University, priority 2022, published 2023)
Entries after “also recorded” stand apart in the source; their conditions may differ.

Columns and labels:
[1] = test system: MMP1 gene expression in HSC-3 cells; assay: qRT-PCR of MMP1 gene expression in HSC-3 cells; type: cell-based, human
Method: (D) is a schematic of the Boyden chambers and solutions used to quantify cell invasion. DOK cells overexpressing ORAI1 (O1) and STIM1 (S1) were seeded in the top chamber with 2% FBS. Media in the bottom chamber contained 10% FBS.
The role of ORAI1 in oral cancer progression was further elucidated by examining the expression of oncogenes in oral cancer, such as MMP1^9,27, as a proof of concept. We first verified the expression of MMP1 in HaCaT, DOK and HSC-3 cells by qRT-PCR analysis. All cells expressed MMP1 in the order oral cancer HSC-3 cells>dysplastic DOK cells>HaCaT cells (FIG. 2A). We next stimulated HSC-3 cells using different concentrations of CPA to examine changes in MMP1 gene expression mediated by SOCE activation. […] These findings were further supported by the decrease in the expression of MMP1 seen in HSC-3 cells with ORAI1 knockdown or deletion. Because in many cells SOCE activation targets the phosphorylation of the transcription factor NFAT (nuclear factor of activated T cells) and its downstream effectors ^28, and because a previous study implicated NFAT in regulating stemness in oral cancer cells ^16, we next interrogated if the transcriptional up-regulation of MMP1 was downstream of NFAT. We first verified the expression of NFAT isoforms (NFAT1-4) in HaCaT, DOK and HSC-3 cells by qRT-PCR analysis showing that NFAT4 (coded by NFATc3) was the most abundant transcript.

TRPV1 = target: T1, TRPV1 (Homo sapiens, UniProt Q8NER1); assay: Stimulation of TRPV1 in HSC-3 cells, cytosolic Ca2+; type: cell-based; settings: TRPV1 agonist, in the presence of Ca2+
T1 construct: Stimulation of transient receptor channels TRPM7, TRPA1 and TRPV1 in HSC-3 cells; endogenous in cells; host or cells: HSC-3 (human oral squamous cell carcinoma)

TRPM7 = target: T2, TRPM7 (Homo sapiens, UniProt Q96QT4); assay: Stimulation of TRPM7 in HSC-3 cells, cytosolic Ca2+; type: cell-based; settings: TRPM7 agonist, in the presence of Ca2+
T2 construct: Stimulation of transient receptor channels TRPM7, TRPA1 and TRPV1 in HSC-3 cells; endogenous in cells; host or cells: HSC-3 (human oral squamous cell carcinoma)
Description: (§1) To investigate SOCE in oral cancer cells, we first used qRT-PCR analysis to analyze the expression of ORAI1-3 in the human oral squamous cell carcinoma (OSCC) cell lines HSC-3 and SCC-9, in the dysplastic oral keratinocytes DOK cells, and in spontaneously transformed normal keratinocytes HaCaT cells. […] Next, we tested whether these cells had functional SOCE by stimulating them with cyclopiazonic acid (CPA), a reversible blocker of the sarco-endoplasmic reticulum Ca^2+ ATPase (SERCA) pump that passively depletes the ER Ca^2+ stores inducing STIM1/ORAI1 coupling and SOCE activation ^22,23. […] We also examined the contribution of other channels that have been implicated in Ca^2+ influx in various cancer cells.

SOCE in SCC-9 cells = assay: SOCE ([Ca2+]cyto) after CPA stimulation in SCC-9 cells; type: cell-based, human; settings: in the presence of the blocker
Description: as §1

HSC-3 cells [2] = assay: Cell proliferation, colorimetric assay MTS; type: cell-based, human
Method: FIG. 1: (A) Heatmap contrast of average variance stabilizing transformation (VST) of ORAI1, ORAI2 and ORAI3 genes between normal (control: N=3 samples) and tongue cancer patients (N=10 samples). Statistical significance was analyzed using the Benjamini-Hochberg FDR (5%) and fold change of 1.5. Both FDR values and fold change were generated using DESeq2. (B-D) show haematoxylin and eosin (H&E) staining (left) and immunofluorescence staining of ORAI1 (right) in the boxed areas of tongue tissue sections showing normal (B), dysplastic (C) and invasive tumor (D) phenotypes. Nuclear staining by 4′,6-diamidino-2-phenylindole (DAPI) is shown in blue. Scale bar, 200 μm. […] Quantification of SOCE corrected for baseline Ca^2+ levels as Δpeak (F−F0) (right). (L) and (M) show cell proliferation measured using MTS comparing control HSC-3 cells compared to shORAI1 (ORAI1 KD) (L) or compared to CRISPR/Cas9 ORAI1 (ORAI1 KO) (M).
To address the role of SOCE in key cancer hallmarks such as cell proliferation in oral cancer, we used two independent approaches to eliminate ORAI1 expression in HSC-3 cells. […] To address the effects of ORAI1 in cell proliferation, we analyzed HSC-3 cells in the presence of synta-66 and in which ORAI1 expression had been reduced by shORAI1 or CRISPR/Cas9 editing using the colorimetric assay MTS (FIG. 1, L and M).

HSC-3 cells [3] = assay: Bulk RNA-seq of CPA stimulated HSC-3 cells; type: cell-based, human
SOCE in HSC-3 cells = assay: SOCE ([Ca2+]cyto) after CPA stimulation in HSC-3 cells; type: cell-based, human; settings: in the presence of the blocker
Method: FIG. 1: (A) Heatmap contrast of average variance stabilizing transformation (VST) of ORAI1, ORAI2 and ORAI3 genes between normal (control: N=3 samples) and tongue cancer patients (N=10 samples). Statistical significance was analyzed using the Benjamini-Hochberg FDR (5%) and fold change of 1.5. Both FDR values and fold change were generated using DESeq2. (B-D) show haematoxylin and eosin (H&E) staining (left) and immunofluorescence staining of ORAI1 (right) in the boxed areas of tongue tissue sections showing normal (B), dysplastic (C) and invasive tumor (D) phenotypes. Nuclear staining by 4′,6-diamidino-2-phenylindole (DAPI) is shown in blue. Scale bar, 200 μm. […] (H) and (J) show qRT-PCR analyses of ORAI1 gene expression by the 2^−ΔΔCT method comparing control (scrambled shRNA) and shORAI1 (ORAI1 KD) HSC-3 cells (H) or CRISPR/Cas9 ORAI1 (ORAI1 KO) (J). (I) and (K) show [Ca^2+]cyto measurements comparing control HSC-3 cells compared to shORAI1 (ORAI1 KD) (I) or compared to CRISPR/Cas9 ORAI1 (ORAI1 KO) (K) (left). Quantification of SOCE corrected for baseline Ca^2+ levels as Δpeak (F−F0) (right). (L) and (M) show cell proliferation measured using MTS comparing control HSC-3 cells compared to shORAI1 (ORAI1 KD) (L) or compared to CRISPR/Cas9 ORAI1 (ORAI1 KO) (M). […]

T1 sequence (Q8NER1 whole entry): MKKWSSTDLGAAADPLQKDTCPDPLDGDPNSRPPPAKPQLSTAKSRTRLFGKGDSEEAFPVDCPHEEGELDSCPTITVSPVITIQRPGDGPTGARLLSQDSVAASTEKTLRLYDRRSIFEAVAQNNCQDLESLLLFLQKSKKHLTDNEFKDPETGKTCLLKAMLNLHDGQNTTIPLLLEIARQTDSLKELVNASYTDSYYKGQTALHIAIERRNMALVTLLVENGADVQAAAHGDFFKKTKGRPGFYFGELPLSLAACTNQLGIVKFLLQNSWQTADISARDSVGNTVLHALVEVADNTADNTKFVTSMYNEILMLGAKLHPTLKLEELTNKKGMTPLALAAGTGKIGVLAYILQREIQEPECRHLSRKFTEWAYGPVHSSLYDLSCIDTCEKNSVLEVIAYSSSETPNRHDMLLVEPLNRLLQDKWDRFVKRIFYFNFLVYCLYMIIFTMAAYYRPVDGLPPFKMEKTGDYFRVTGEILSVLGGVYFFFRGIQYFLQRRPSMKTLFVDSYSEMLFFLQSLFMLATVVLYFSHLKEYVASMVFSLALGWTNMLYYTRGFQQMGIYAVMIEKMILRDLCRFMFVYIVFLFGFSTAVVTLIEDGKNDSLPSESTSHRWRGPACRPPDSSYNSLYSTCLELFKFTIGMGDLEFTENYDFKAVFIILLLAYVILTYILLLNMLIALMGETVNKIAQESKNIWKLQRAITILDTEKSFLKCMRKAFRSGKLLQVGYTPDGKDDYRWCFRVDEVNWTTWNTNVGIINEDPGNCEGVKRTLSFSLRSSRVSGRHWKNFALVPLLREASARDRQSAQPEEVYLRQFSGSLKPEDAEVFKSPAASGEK
T2 sequence (Q96QT4 whole entry): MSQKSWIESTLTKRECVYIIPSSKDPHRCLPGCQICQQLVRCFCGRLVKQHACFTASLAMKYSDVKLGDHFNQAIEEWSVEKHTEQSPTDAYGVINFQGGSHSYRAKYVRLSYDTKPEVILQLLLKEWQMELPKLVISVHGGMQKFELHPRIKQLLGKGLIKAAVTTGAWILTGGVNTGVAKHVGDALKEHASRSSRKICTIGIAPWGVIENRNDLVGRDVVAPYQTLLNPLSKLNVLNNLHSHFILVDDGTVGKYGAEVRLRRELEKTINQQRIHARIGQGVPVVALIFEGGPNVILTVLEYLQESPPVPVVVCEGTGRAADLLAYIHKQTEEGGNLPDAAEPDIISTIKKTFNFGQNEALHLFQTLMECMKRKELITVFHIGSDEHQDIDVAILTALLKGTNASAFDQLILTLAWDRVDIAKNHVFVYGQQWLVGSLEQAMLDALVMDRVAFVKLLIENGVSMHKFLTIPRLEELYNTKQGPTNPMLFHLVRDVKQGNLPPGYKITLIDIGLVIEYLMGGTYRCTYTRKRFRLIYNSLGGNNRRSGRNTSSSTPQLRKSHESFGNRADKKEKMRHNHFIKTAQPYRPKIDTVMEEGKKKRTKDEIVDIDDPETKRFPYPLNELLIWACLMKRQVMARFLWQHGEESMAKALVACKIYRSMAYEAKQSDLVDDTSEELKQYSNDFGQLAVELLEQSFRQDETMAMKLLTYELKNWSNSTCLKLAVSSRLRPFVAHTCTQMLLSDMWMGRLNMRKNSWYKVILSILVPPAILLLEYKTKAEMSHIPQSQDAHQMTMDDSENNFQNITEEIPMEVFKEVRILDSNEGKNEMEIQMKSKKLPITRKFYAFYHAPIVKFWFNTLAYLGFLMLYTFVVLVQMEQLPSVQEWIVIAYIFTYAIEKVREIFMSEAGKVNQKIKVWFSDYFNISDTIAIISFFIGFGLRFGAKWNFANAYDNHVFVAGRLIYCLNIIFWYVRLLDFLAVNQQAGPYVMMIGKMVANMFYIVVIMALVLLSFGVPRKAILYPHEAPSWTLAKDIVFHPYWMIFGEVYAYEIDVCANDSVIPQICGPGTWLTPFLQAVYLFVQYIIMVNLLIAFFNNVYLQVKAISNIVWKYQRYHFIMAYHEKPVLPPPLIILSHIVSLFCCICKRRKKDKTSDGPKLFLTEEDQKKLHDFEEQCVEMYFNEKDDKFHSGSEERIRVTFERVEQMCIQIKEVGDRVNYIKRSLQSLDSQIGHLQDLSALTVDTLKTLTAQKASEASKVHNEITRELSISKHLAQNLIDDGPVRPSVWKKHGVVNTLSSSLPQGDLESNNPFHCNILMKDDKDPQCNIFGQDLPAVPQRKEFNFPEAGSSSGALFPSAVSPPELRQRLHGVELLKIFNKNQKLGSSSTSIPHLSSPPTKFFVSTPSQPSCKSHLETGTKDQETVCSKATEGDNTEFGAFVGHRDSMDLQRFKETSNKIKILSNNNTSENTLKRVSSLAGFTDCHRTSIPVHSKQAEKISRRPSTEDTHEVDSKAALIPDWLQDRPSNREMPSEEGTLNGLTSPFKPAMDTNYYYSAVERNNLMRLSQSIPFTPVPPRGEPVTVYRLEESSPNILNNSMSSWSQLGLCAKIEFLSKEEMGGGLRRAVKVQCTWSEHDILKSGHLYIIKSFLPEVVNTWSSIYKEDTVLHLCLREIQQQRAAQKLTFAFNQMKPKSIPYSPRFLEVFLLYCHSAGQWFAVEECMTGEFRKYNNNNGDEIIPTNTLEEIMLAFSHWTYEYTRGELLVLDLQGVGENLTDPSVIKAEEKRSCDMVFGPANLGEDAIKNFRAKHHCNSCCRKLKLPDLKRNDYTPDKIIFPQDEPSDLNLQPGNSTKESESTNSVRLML

CC(=O)C1=C(O)[C@@H]2[C@H]3c4c[nH]c5cccc(c45)C[C@H]3C(C)(C)N2C1=O [CPA, cyclopiazonic acid]
time of maximal effect on MMP1 gene expression ([1]; HSC-3 cells, CPA stimulation): 3 h

COc1cc(CNC(=O)CCCC/C=C/C(C)C)ccc1O [capsaicin]
increase in cytosolic Ca2+ (TRPV1): failed to evoke an increase

Oc1ccc2c3c1O[C@H]1c4oc5ccccc5c4C[C@@]4(O)[C@@H](C2)N(CC2CC2)CC[C@]314 [naltriben]
increase in cytosolic Ca2+ (TRPM7): failed to evoke an increase

COc1ccc(OC)c(-c2ccc(NC(=O)c3ccncc3F)cc2)c1 [synta-66]
SOCE (SOCE in SCC-9 cells): significantly reduced
proliferation compared to control cells (HSC-3 cells [2]): significantly decreased
effect on the CPA-elicited increase in MMP1 gene expression ([1]; HSC-3 cells stimulated with CPA): attenuated the increase
mRNA level of pain modulators (VEGF-A, B and C, NGF, TLR2, PTGS2) (HSC-3 cells [3]): down-regulated
number of MMP genes significantly down-regulated (HSC-3 cells [3]; out of >21 genes in the MMP family, FDR<0.05): 8
SOCE (SOCE in HSC-3 cells): significantly reduced; also recorded: abolished
